We go through 1 compound from patent publication US20130150399A1, “INHIBITORS OF THE UNFOLDED PROTEIN RESPONSE AND METHODS FOR THEIR USE” (The Board of Trustees of the Leland Stanford Junior …, priority 2006, published 2013).

Assay [1] deals with T1, His6-IRE1α-cyto (Homo sapiens, UniProt O75460).
T1 construct: purified the full cytosolic portion of IRE1α (His6-IRE1α-cyto) containing both kinase and endonuclease domains; His6; made in house
The experiment in a line: IRE1α endonuclease (in vitro ribonuclease) assay. The following applies: 2.5 μM. In kind it is biochemical. How it is done:
The in vitro ribonuclease assays were carried out using purified IRE1α-cyto essentially as described. Gonzalez and Walter, Methods Mol Biol 160: 25-36 (2001); Gonzalez et al., Embo J 18: 3119-3132 (1999). For each reaction, 5 μg purified IRE1α-cyto was incubated with 300 ng of fluorescein-labeled RNA stem-loop substrate at 37° C. in a total volume of 300 μl. Aliquots (50 μl) were withdrawn at the indicated times and mixed with an equal volume of stop solution. Id. Reactions were analyzed by SDS-PAGE using 10-20% acrylamide gradient gels. The sequence for the hXBP-1 3′ RNA stem-loop substrate is as follows: • 5′[…] 3′ (SEQ ID NO: 8). […]
HT1080 cells were exposed to DMSO vehicle (lane 1), irestatin 9389 (2.5 μM; lane 2) for 16 hours or Tm (5 μg/ml; lane 3) for 8 hours. Following treatments, cells were harvested, lysed, and analyzed by immunoblotting using anti-Grp78 antibody (top) or anti-actin (bottom) as a loading control. […] Cell lysates were analyzed by Western immunoblotting using anti-IRE1α (bottom) or anti-phospho-IRE1α antibodies (top). […] Lysates were analyzed by Western blot using antisera specific for phospho-JNK1 (top) or total JNK1 (bottom). […] F. Quantification of RNA cleavage kinetics. […] Samples were analyzed as in (E).
Next we determined whether irestatin 9389 inhibited the endonuclease function of IRE1α. […]

The subject of assay [2] is PANC1 pancreatic adenocarcinoma cells. The experiment in a line: PANC1 tumor growth in vivo. The arrangement: species or system nude mice. The following applies: 60 mg/kg ip bolus every 48 hours, 5 doses. How it is done:
Dose: 60 mg/kg ip bolus injection every 48 hours. 5 total doses. 5-7 tumors per group. PANC1 pancreatic adenocarcinoma cell line.
PANC1 pancreatic adenocarcinoma cells were implanted subcutaneously into nude mice. Mice were then given a bolus injection of one of the inventive irestatins (1401, 9337, 3611 or 9389) at a dose of 60 mg/kg every 48 hours for a total of 5 doses, with 5-7 tumors being treated per group.

The test system of assay [3] is IRE1α. The assay is described as follows: Western immunoblot of total IRE1α, HT1080 cells. The following applies: 2.5 μM, 16 hours. In kind it is cell-based, human. The procedure:
Cells (2×10^6) were cultured in 10-cm dishes, collected using a cell scraper at 4° C., and lysed by addition of 150 μl cell lysis buffer [50 mM Tris pH 7.4, 150 mM NaCl, 10% glycerol, 0.5% Triton X-100. 0.5% NP-40, 2 mM Na3VO4, 20 mM beta-glycerophosphate, 10 mM NaF, 1 mM DTT, 1 mM PMSF). Lysates were centrifuged for 5 min at 10,000×g, and proteins (˜40 μg) were resolved by SDS-PAGE followed by semi-dry transfer to nitrocellulose membranes. Membranes were blocked in TBS-5% milk supplemented with 0.1% Tween-20. The blots were then probed overnight with relevant antibodies, washed, and incubated for 2 hours with species-specific secondary antibodies conjugated to horseradish peroxidase. After washing in block solution, immunoreactive material was detected by enhanced chemiluminescence (SuperSignal West Dura Extended, Pierce, Inc., Rockville, Ill.).
HT1080 cells were exposed to DMSO vehicle (lane 1), irestatin 9389 (2.5 μM; lane 2) for 16 hours or Tm (5 μg/ml; lane 3) for 8 hours. Following treatments, cells were harvested, lysed, and analyzed by immunoblotting using anti-Grp78 antibody (top) or anti-actin (bottom) as a loading control. […] Cell lysates were analyzed by Western immunoblotting using anti-IRE1α (bottom) or anti-phospho-IRE1α antibodies (top). […] Lysates were analyzed by Western blot using antisera specific for phospho-JNK1 (top) or total JNK1 (bottom). […]
Background: A western blot detects proteins with antibodies after separation by electrophoresis.

The target of assay [4] is T2, RNAse A (Bos taurus, UniProt P61823).
T2 construct: purchased Sigma
The assay is described as follows: RNAse A activity assay. The format is biochemical, bovine. The following applies: >100-fold molar excess of irestatin 9389.

T1 sequence (O75460 465-977 limits assumed): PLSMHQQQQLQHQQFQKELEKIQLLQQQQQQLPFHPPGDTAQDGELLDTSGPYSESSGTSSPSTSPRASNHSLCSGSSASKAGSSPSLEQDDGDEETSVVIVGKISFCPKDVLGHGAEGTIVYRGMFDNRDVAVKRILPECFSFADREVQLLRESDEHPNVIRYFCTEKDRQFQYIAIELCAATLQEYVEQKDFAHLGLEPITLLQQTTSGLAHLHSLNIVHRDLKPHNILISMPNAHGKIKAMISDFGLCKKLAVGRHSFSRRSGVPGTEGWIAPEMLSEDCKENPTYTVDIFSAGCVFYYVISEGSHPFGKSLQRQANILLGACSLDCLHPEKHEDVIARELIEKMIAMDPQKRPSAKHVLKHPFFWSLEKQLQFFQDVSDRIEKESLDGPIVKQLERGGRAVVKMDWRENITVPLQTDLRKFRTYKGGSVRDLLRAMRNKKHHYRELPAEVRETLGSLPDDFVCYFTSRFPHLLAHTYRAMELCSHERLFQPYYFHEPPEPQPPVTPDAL
T2 sequence (P61823 27-150): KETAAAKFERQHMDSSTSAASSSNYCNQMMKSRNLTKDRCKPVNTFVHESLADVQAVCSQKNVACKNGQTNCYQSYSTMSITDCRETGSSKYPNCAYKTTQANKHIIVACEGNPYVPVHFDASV

`Cc1csc(NC(=O)CSc2nc3c(c(C(F)(F)F)c2C#N)CCC3)n1` [Compound 9389]: the “cleavage of XBP-1 target RNA by IRE1α endonuclease” value in assay [1] is “strongly inhibited cleavage”. Further, the tumor growth result in assay [2] was “significant tumor growth was observed in untreated mice, but not in mice treated with the irestatins”. Besides, the “total level of IRE1α” value in assay [3] was “no significant changes in the total level of IRE1α”. Moreover, the “degradation of the XBP-1 3′ intronic loop by RNAse A” value in assay [4] is “failed to inhibit degradation”.
